# Data reported in patent publication US4145554A, “3-Nitropyrazole derivatives” (Eli Lilly and Company, priority 1977, dated 1979).
# Assays:
# [1] = test system: Diplococcus pneumoniae; assay: agar dilution technique (MIC); format: cell-based; details: Streptococcus pneumoniae
# [2] = test system: Escherichia coli; assay: in vitro tube dilution test (MIC); format: cell-based; details: tube dilution, read-out: MIC
# Method in brief: (§1)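 Standard tube dilution test; MIC reported as micrograms of compound per milliliter.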
# [3] = test system: Mycoplasma synoviae; assay: in vitro tube dilution test (MIC); format: cell-based; details: Mycoplasmopsis synoviae, Mycoplasma synoviae
# Method in brief: as §1
# [4] = test system: Mycoplasma gallisepticum; assay: in vitro tube dilution test (MIC); format: cell-based; details: Mycoplasmoides gallisepticum; Mycoplasma galliseptioum, tube dilution; read-out: MIC
# Method in brief: as §1
# [5] = test system: Salmonella sp.; assay: in vitro tube dilution test (MIC); format: cell-based
# Text: Our compound, 1-(2-hydroxyethyl)-3-nitro-4-pyrazolecarboxamide, has been extensively tested in vitro to determine the range of microorganisms against which it is active. The table of data below reports the minimum inhibitory concentration (MIC) at which the compound is effective in controlling a variety of microorganisms in a standard tube dilution test system. The MIC is reported as micrograms of compound per milliliter.
# [6] = test system: Salmonella pullorum 9-25; assay: in vitro tube dilution test (MIC); format: cell-based; details: Salmonella enterica; Salmonella pullorum 9-25, tube dilution
# [7] = test system: Streptococcus pyogenes; assay: agar dilution technique (MIC); format: cell-based
# [8] = test system: H. meleagridis; assay: Blackhead in poultry, turkeys; format: in vivo
# Method: One- to three-week-old chicks and turkey poults were obtained from homogeneous source flocks and allocated into treatment groups. Some groups were held as infected, untreated controls, and other groups were treated with 3-nitropyrazoles by administering the compounds in the birds' feed. Various concentrations of the pyrazoles were administered to determine the least concentration which protected the birds. A few days after the administration of medicated feed began, all of the birds were challenged by rectally administering a suspension of at least 5,000 H. meleagridis protozoa per chick. The challenge organisms had been originally obtained from infected chickens, and were grown in vitro to provide a supply of organisms for testing.
# The birds were held for about seven days after the challenge was administered, during which time the administration of pyrazole-medicated feed was continued. Then all of the chicks, including the untreated, infected controls, were sacrificed and necropsied. The cecum and the liver of each bird were examined for characteristic H. meleagridis lesions.
# For each compound, the lowest feed concentration which gave an active response is indicated. While feed consumption data were not taken during the tests, the birds ate at such a rate that a feed concentration of 0.02 percent is equivalent to a treatment rate of about 10 mg./kg./day.
# [9] = test system: Pasteurella multocida and P. hemolytica; assay: Pasteurella pneumonia in calves; format: in vivo
# [10] = test system: naturally-occurring pneumoenteritis complex infection (pasteurella species, E. coli and salmonellae); assay: Pneumoenteritis complex disease in calves, second test; format: in vivo
# Method: The test reported below was conducted in general identically with the test above. All of the calves used in the test were approximately 3 days old when the test began, and the test ran for 56 days.
# The treated group received 200 mg./day/calf (about 3-5 mg./kg./day) of 1-(2-hydroxyethyl)-3-nitro-4-pyrazolecarboxamide, which was administered in the calves' milk replacer diet.
# The table below reports the average weight gain of the surviving animals and the mortality of the calves in each group.
# [11] = test system: Mima polymorpha; assay: agar dilution technique (MIC); format: cell-based
# [12] = test system: Hemophilus influenzae; assay: agar dilution technique (MIC); format: cell-based; details: Haemophilus influenzae
# [13] = test system: Staphylococcus sp.; assay: in vitro tube dilution test (MIC); format: cell-based
# [14] = test system: Erysipelas insidiosa; assay: in vitro tube dilution test (MIC); format: cell-based
# [15] = test system: Arizona hinshaw (paracolon); assay: in vitro tube dilution test (MIC); format: cell-based
# [16] = test system: avian E. coli; assay: Colibacillosis in chickens, medicated feed; format: in vivo
# [17] = test system: S. typhimurium; assay: Salmonella typhimurium in chickens, medicated feed; format: in vivo, chicks; details: for Avg. Wt.: surviving chicks
# [18] = 8 days after challenge, 25 mg. per kg. intramuscular
# [19] = 100 gm./ton, 10^-1 dilution challenge, initial weight 940 gm.
# [20] = 100 gm./ton, further test, about 5 weeks of age
# [21] = 200 gm./ton, 10^-1 dilution challenge, initial weight 940 gm.
# [22] = 200 gm./ton, further test, about 5 weeks of age
# [23] = 300 gm./ton feed, about 5 weeks old, 10^-2 dilution challenge, first test
# [24] = 300 gm./ton, 10^-1 dilution challenge, initial weight 940 gm.
smiles,measurement,setting,value
"NC(=O)c1cn(CCO)nc1[N+](=O)[O-] [Compound 32, 1-(2-hydroxyethyl)-3-nitro-4-pyrazolecarboxamide]",MIC,[1],2 µg/mL
same,MIC,[2],3.12 µg/mL
same,MIC,[3],50 µg/mL
same,MIC,[4],0.78 µg/mL
same,MIC,[5],3.12 µg/mL
same,MIC,[6],< 1.56 µg/mL
same,MIC,[7],32 µg/mL
same,Active Level (lowest feed concentration which gave an active response),[8],.02%
same,pasteurellae identified in lungs,[9]; [18],No pasteurellae were identified in the lungs of any of the three animals
same,physical examination of lungs,[9]; [18],minor consolidation or emphysema in areas of the lungs
same,extent of pasteurella infection,"[9]; indicated by temperatures, 25 mg. per kg. intramuscular",only a very mild pasteurella infection
same,Average Temperature,"[9]; post-challenge, 25 mg. per kg. intramuscular daily for five days",102.7 ° F.
same,Mortality,[10]; 200 mg./day/calf,about 12%
same,surviving treated calves with E. coli in rectal swabs,[10]; 200 mg./day/calf,all of the surviving treated calves
same,survivors with P. multocida organisms in nasal secretions,[10]; 200 mg./day/calf,6 of the survivors
same,Mortality,"[10]; 200 mg./day/calf (about 3-5 mg./kg./day), 56 days",1/8
same,Avg. Wt. Gain,"[10]; 200 mg./day/calf (about 3-5 mg./kg./day), 56 days, survivors",52.1 lbs.
same,MIC,[11],2 µg/mL
same,MIC,[12],4 µg/mL
same,MIC,[13],3.12 µg/mL
same,MIC,[14],> 50 µg/mL
same,MIC,[15],6.25 µg/mL
same,Avg. Wt.,[16]; [19],1239 gm.
same,E. coli Lesions,[16]; [19],17/18
same,Mortality,[16]; [19],0/18
same,Mortality,"[16]; 100 gm./ton, approximately 7-week-old chickens",3/12
same,E. coli Lesions,"[16]; 100 gm./ton, approximately 7-week-old chickens, birds which died not examined",5/9
same,Avg. Wt.,[16]; [20],1209 gm.
same,E. coli Lesions,[16]; [20],37/40
same,Mortality,[16]; [20],6/40
same,Avg. Wt.,[16]; [21],1250 gm.
same,E. coli Lesions,[16]; [21],16/18
same,Mortality,[16]; [21],0/18
same,Avg. Wt.,[16]; [22],1353 gm.
same,E. coli Lesions,[16]; [22],31/40
same,Mortality,[16]; [22],2/40
same,E. coli Lesions,[16]; [23],11/30
same,Mortality,[16]; [23],0/30
same,Wt.,[16]; [23],1103 gm.
same,Avg. Wt.,[16]; [24],1302 gm.
same,E. coli Lesions,[16]; [24],5/18
same,Mortality,[16]; [24],0/18
same,Mortality,"[16]; 300 gm./ton, approximately 7-week-old chickens",0/12
same,E. coli Lesions,"[16]; 300 gm./ton, approximately 7-week-old chickens, birds which died not examined",4/12
same,Mortality,"[16]; 600 gm./ton, approximately 7-week-old chickens",0/12
same,E. coli Lesions,"[16]; 600 gm./ton, approximately 7-week-old chickens, birds which died not examined",2/12
same,Mortality,"[16]; 1000 gm./ton, approximately 7-week-old chickens",0/12
same,E. coli Lesions,"[16]; 1000 gm./ton, approximately 7-week-old chickens, birds which died not examined",0/12
same,Survival,"[17]; Test A, 100 gm./ton feed",20/36
same,Avg. Wt.,"[17]; Test A, 100 gm./ton feed",94 gm.
same,Survival,"[17]; Test B, 200 gm./ton feed",35/36
same,Avg. Wt.,"[17]; Test B, 200 gm./ton feed",107 gm.
same,Survival,"[17]; Test C, 200 gm./ton feed",34/48
same,Avg. Wt.,"[17]; Test C, 200 gm./ton feed",71 gm.
